Columns and labels:
[1] = target: T1, mGlu2 (Homo sapiens, UniProt Q14416); test: Standardized bioassay protocol, mGluR2 antagonist/NAM assay; format: cell-based; details: for Activity Level: 20 μM, mGlu2 activity, control at 100%, greater than control indicates NAM or antagonist; for Bioactivity Class: assay performed at 20 μM
Experimental: (§1) A standardized bioassay protocol was followed as illustrated in FIG. 3. In the standardized bioassay protocol, an assay buffer of HBSS with 1% HEPES was used. Cells were seeded overnight at 10,000 cells/well in 20 μl plating reagent. Controls for the experiment were an agonist of L-glutamic acid (AC156212500), agonist of LY354740 (fisher part #: 32-465-0), antagonist of LY341495 (fisher part #: 12-095-0), PAM of BINA (fisher part #: 40-485-0), and NAM of (decoglurant (fisher part #: 50-203-0742).
(§2) The results are illustrated in Table 7 and FIGS. 4 and 5. FIG. 4 illustrates mGlu2 activity greater than control (dotted red line at 100%) is indicative of an mGlu2 negative allosteric modulator or antagonist. The assay was performed at 20 μM. FIG. 5 illustrates mGlu2 activity less than the control (at 100%) is indicative of a mGlu2 positive allosteric modulator or agonist. The assay was performed at 100 μM.

[2] = target: T1, mGlu2; test: Standardized bioassay protocol, mGluR2 agonist/PAM assay; format: cell-based; details: for Activity Level: 100 μM, mGlu2 activity, control at 100%, less than control indicates PAM or agonist; for Bioactivity Class: assay performed at 100 μM
Experimental: as §1, §2

T1 sequence (Q14416 19-872): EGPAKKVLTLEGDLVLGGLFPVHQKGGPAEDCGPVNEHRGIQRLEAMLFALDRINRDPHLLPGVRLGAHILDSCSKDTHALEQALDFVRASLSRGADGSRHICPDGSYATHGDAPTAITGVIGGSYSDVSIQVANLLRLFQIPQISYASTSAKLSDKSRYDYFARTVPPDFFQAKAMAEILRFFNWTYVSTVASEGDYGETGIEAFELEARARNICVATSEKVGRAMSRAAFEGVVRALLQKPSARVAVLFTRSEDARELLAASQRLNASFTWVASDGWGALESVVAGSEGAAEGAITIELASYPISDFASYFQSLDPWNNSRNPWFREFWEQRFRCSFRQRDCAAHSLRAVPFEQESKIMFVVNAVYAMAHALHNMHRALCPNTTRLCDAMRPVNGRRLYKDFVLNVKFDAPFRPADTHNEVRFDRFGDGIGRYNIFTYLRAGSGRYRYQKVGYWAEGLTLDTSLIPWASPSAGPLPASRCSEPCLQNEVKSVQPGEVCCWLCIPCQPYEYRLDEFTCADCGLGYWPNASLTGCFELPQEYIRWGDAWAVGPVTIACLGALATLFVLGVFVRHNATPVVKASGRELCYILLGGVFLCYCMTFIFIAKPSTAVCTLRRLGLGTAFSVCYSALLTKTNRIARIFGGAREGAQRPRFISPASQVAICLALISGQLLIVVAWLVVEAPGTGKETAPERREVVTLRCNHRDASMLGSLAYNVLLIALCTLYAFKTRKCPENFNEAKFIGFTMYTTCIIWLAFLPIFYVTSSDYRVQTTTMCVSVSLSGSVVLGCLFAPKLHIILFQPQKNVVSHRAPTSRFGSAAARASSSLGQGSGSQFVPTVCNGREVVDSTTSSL

Row | SMILES | Activity Level [1] | Bioactivity Class [1] | Activity Level [2] | Bioactivity Class [2]
1 | O=C1c2cccc(O)c2C(=O)C2C(O)=CC(CO)=CC12 (stereo not drawn) [Compound 4] | 20 μM/191.200% | Antagonist/NAM | – | –
2 | O=C1c2cccc(O)c2C(=O)c2c(O)cccc21 [Compound 6] | 20 μM/142.558% | Antagonist/NAM | – | –
3 | CC(=O)Oc1cccc2c1C(=O)c1c(OC(C)=O)cc(C(=O)O)cc1C2=O [Compound 7] | 20 μM/195.543% | Antagonist/NAM | – | –
4 | O=C(O)c1cc(O)c2c(c1)C(=O)c1cccc(O)c1C2=O [Compound 8] | 20 μM/749.225% | Antagonist/NAM | – | –
5 | COc1cc(O[C@@H]2O[C@H](CO)[C@@H](O)[C@H](O)[C@H]2O)c2c(O)c(C(C)=O)c(C)cc2c1 [Compound 9] | 20 μM/107.501% | Antagonist/NAM | – | –
6 | Cn1c(=O)[nH]c(=O)c2[nH]cnc21 [Compound 10] | 20 μM/152.609% | Antagonist/NAM | – | –
7 | Cn1cnc2c1c(=O)[nH]c(=O)n2C [Compound 11] | 20 μM/153.003% | Antagonist/NAM | – | –
8 | COC(=O)C1OC(=O)c2cc(O)c(O)c(O)c2C1C(CC(=O)O)C(=O)OC1C(COC(=O)c2ccc(O)c(O)c2)OC(OC(=O)c2cc(O)c(O)c(O)c2)C(O)C1OC(=O)c1cc(O)c(O)c(O)c1 (stereo not drawn) [Compound 12] | – | – | 100 μM/25.688% | Agonist/PAM
9 | Cc1cc(O)c2c(c1)C(=O)c1cc(O)cc(O)c1C2=O [Compound 13] | – | – | 100 μM/9.870% | Agonist/PAM
